“And” between values parts separate entries of the source, which are not always exact repeats. Identical values can stand only once. Like-named read-outs stand apart in the source and are kept apart here.
Columns and labels:
Type in all cases: biochemical
[1] = molecular target: T1, cloned human mu opioid receptor (Homo sapiens, UniProt P35372); assay: GTP-γ-S Binding Assay, mu opioid receptor (Table 1: Receptor Binding); conditions: membranes from cells expressing cloned human mu receptor
T1 construct: expressed in transfected cells
T1 sequence (P35372 whole entry): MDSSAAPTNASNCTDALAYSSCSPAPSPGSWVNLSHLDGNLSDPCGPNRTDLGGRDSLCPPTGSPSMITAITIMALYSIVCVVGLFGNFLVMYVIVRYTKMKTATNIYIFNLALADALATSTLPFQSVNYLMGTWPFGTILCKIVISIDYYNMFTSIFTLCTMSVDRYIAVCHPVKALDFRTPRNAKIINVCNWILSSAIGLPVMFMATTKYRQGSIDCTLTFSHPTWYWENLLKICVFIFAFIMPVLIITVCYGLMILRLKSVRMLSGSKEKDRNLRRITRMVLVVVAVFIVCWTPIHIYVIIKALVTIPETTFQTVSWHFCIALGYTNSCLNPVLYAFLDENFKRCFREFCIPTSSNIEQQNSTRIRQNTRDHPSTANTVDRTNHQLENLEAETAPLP

[2] = molecular target: T2, cloned human kappa opioid receptor (Homo sapiens, UniProt P41145); assay: GTP-γ-S Binding Assay, kappa opioid receptor (Table 1: Receptor Binding); conditions: membranes from cells expressing cloned human kappa receptor
T2 construct: expressed in transfected cells
T2 sequence (P41145 whole entry): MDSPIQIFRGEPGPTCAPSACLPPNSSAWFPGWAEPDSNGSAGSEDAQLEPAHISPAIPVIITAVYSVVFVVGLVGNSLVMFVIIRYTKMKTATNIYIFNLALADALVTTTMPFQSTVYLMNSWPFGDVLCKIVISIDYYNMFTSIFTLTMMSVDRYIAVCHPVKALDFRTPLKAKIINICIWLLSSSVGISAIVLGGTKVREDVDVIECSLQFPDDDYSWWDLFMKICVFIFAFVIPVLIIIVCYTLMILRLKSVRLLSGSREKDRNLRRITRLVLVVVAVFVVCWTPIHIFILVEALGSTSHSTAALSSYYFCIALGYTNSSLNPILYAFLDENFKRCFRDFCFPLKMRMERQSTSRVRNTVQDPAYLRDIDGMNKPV

[3] = molecular target: T3, cloned human delta opioid receptor (Homo sapiens, UniProt P41143); assay: GTP-γ-S Binding Assay, delta opioid receptor (Table 1: Receptor Binding); conditions: membranes from cells expressing cloned human delta receptor
T3 construct: expressed in transfected cells
T3 sequence (P41143 whole entry): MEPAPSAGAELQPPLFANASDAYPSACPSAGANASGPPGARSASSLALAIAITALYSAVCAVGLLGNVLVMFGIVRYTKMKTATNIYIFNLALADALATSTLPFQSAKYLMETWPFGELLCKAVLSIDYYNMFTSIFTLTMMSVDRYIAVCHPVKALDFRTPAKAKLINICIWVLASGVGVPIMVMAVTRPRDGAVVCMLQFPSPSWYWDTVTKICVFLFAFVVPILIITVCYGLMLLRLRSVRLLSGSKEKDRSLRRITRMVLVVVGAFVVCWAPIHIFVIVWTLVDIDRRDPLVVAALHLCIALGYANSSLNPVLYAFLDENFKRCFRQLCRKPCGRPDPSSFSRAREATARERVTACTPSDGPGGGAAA
Experimental: The functional antagonist potency (Kb) of the sample compounds was determined using the GTPγS binding assay. GTPgS-based functional assays provide an in vitro measure of the activity of opioid agonists and antagonists. Opioid reference compounds or test compound are incubated with membrane homogenate from cells expressing the cloned human mu, kappa or delta opioid receptor and radiolabeled [35S]GTPgS. If the compound activates the opioid receptor, an increase in the binding of radiolabeled GTPgS is observed. […] These tests provide an in vitro measurement of the activity of the compound at human opioid receptors. GTP-γ-S Binding Assay
An SPA-based GTP-γ-S assay format was developed based on previous opioid (Emmerson et al., J. Pharm Exp Ther 278, 1121, 1996; Horng et al., Society for Neuroscience Abstracts, 434.6, 2000) and muscarinic (DeLapp et al., JPET 289, 946, 1999) assay formats. Membranes were resuspended in 20 mM HEPES, 100 mM NaCl, 5 mM MgCl2, 1 mM DTT, and 1 mM EDTA. Fifty (50) […], of GTP-γ-[35S], compound; membrane suspension (20 microgram/well), and wheat germ agglutinin coated SPA beads (1 mg/well) were added to clear bottom 96 well assay plates. GDP ([…]) was added to the membrane solution prior to addition to the assay plates. Plates were sealed and incubated for four hours at room temperature then placed in a refrigerator overnight to allow the beads to settle. Signal stability at 4° C. was determined to be >6O hours. Plates were warmed to room temperature and counted in a Wallac Microbeta scintillation counter. For antagonist assays, specific agonists were added at the following concentrations: (MOR) DAMGO 1 micromolar, (DOR) DPDPE 30 nM, (KOR) U69593 300 nM. Kb's were determined by Cheng-Prusoff equation (see Cheng and Prusoff, Biochem. Pharmacol. 22, 3099, 1973).

[4] = read-out: Receptor Binding (Ki, nM) Mu

| Compound | Ki [1, 4] | Ki [2] [nM] | Ki [3] [nM] | Ki ([1]; Receptor Binding (Ki, nM) Mu) [nM] |
| --- | --- | --- | --- | --- |
| 6-{4-[(2-Pyridin-4-yl-ethylamino)-methyl]-phenylsulfanyl}-nicotinamide [Example 19] | 107 nM | 137 | 858 |  |
| CC(=O)c1ccc(Oc2ccc(CCNCc3ccccc3)cc2)cc1 [Example 5, 1-{4-[4-(2-Benzylamino-ethyl)-phenoxy]-phenyl}-ethanone] | 1310 nM | > 5000 | > 5000 |  |
| CC(=O)Oc1ccc(Oc2ccc(CCNCc3ccccc3)cc2)cc1 [Example 6, Acetic acid 4-[4-(2-benzylamino-ethyl)-phenoxy]phenyl ester] | 229 nM | 1620 | 3250 |  |
| NC(=O)c1ccc(Sc2ccc(CNCC3CC3)cc2)nc1 [Example 10, 6-{4-[(Cyclopropylmethyl-amino)-methyl]-phenylsulfanyl}-nicotinamide] | 726 nM | > 5000 | 3040 |  |
| CC(C)CCNCc1ccc(Sc2ccc(C(N)=O)cn2)cc1 [Example 13, 6-{4-[(3-Methyl-butylamino)-methyl]-phenylsulfanyl}-nicotinamide] | 563 nM | 2440 | 3520 |  |
| NCCc1ccc(Nc2ccc(C(N)=O)cn2)cc1 [Example 16, 6-[4-(2-Amino-ethyl)-phenylamino]-nicotinamide] |  | 1020 | 270 | 45.4 |
| NC(=O)c1ccc(Nc2ccc(CCNCC3CCCCC3)cc2)nc1 [Example 18, 6-{4-[2-(Cyclohexylmethyl-amino)-ethyl]-phenylamino}-nicotinamide] | 48.7 nM | 466 | 278 |  |
| NC(=O)c1ccc(Nc2ccc(CNCCc3ccccc3)cc2)nc1 [Example 22, 6-[4-(Phenethylamino-methyl)-phenylamino]-nicotinamide] | > 3000 nM | > 4000 | > 5000 |  |
| CC(=O)Nc1ccc(Oc2ccc(CCN)cc2)cc1 [Example 25, N-{4-[4-(2-Amino-ethyl)-phenoxy]-phenyl}-acetamide] |  | 3970 | 2510 | 67.5 |
| CC(=O)Nc1ccc(Oc2ccc(CCNCCC3CCCCC3)cc2)cc1 [Example 30, N-(4-{4-[2-(2-Cyclohexyl-ethylamino)-ethyl]-phenoxy}-phenyl)-acetamide] | 18 nM | 163 | 260 |  |
| CC(=O)Nc1ccc(Oc2ccc(CCNCc3cccc(Cl)c3)cc2)cc1 [Example 37, N-(4-{4-[2-(3-Chloro-benzylamino)-ethyl]-phenoxy}-phenyl)-acetamide] | 1750 nM | > 4000 | > 5000 |  |
| CC(=O)Nc1ccc(Oc2ccc(CCNCC(C)C)cc2)cc1 [Example 38, N-{4-[4-(2-Isobutylamino-ethyl)-phenoxy]-phenyl}-acetamide] | 1720 nM | > 4000 | > 5000 |  |
| CC(=O)Nc1ccc(Oc2ccc(CCNC3CCCCC3)cc2)cc1 [Example 39, N-{4-[4-(2-Cyclohexylamino-ethyl)-phenoxy]-phenyl}-acetamide] | > 2500 nM | > 4000 | > 5000 |  |

More lines, main results first:

| Ki [1, 4] | Ki [2] [nM] | Ki [3] [nM] | Compound | Ki ([1]; Receptor Binding (Ki, nM) Mu) [nM] |
| --- | --- | --- | --- | --- |
| 86.4 nM | 1020 | 714 | NC(=O)c1ccc(S(=O)(=O)c2ccc(CNCCc3ccccc3)cc2)cc1 [Example 14, 4-[4-(Phenethylamino-methyl)-benzenesulfonyl]-benzamide] |  |
| 292 nM | 654 | 1820 | NC(=O)c1ccc([S+]([O-])c2ccc(CNCCc3ccccc3)cc2)cc1 (stereo not shown) [Example 15, 4-[4-(Phenethylamino-methyl)-benzenesulfinyl]-benzamide] |  |
| 1350 nM | 761 | > 5000 | NC(=O)c1ccc(Nc2ccc(CCNCc3ccccc3)cc2)nc1 [Example 17, 6-[4-(2-Benzylamino-ethyl)-phenylamino]-nicotinamide] |  |
| 73.2 nM | 402 | 537 | NC(=O)c1ccc(Nc2ccc(CNCc3ccccc3)cc2)nc1 [Example 20, 6-[4-(Benzylamino-methyl)-phenylamino]-nicotinamide] |  |
| > 3000 nM | > 4000 | > 5000 | NC(=O)c1ccc(Nc2ccc(CNCC3CCCCC3)cc2)nc1 [Example 21, 6-{4-[(Cyclohexylmethyl-amino)-methyl]-phenylamino}-nicotinamide] |  |
| 198 nM | 2670 | 4020 | CC(=O)Nc1ccc(Oc2ccc(CCNC(=O)OC(C)(C)C)cc2)cc1 [Example 24, {2-[4-(4-Acetylamino-phenoxy)-phenyl]-ethyl}-carbamic acid tert-butyl ester] |  |
| 200 nM and 64.3 nM |  |  | CCCCCCNCCc1ccc(Oc2ccc(NC(C)=O)cc2)cc1 [Example 27, N-{4-[4-(2-Hexylamino-ethyl)-phenoxy]-phenyl}-acetamide] |  |
| 26.9 nM | 150 | 469 | CC(=O)Nc1ccc(Oc2ccc(CCNCc3cccs3)cc2)cc1 [Example 28, N-[4-(4-{2-[(Thiophen-2-ylmethyl)-amino]-ethyl}-phenoxy)-phenyl]-acetamide] |  |
| 5.06 nM | 731 | 62.5 | CC(=O)Nc1ccc(Oc2ccc(CCNCCCc3ccccc3)cc2)cc1 [Example 29, N-(4-{4-[2-(3-Phenyl-propylamino)-ethyl]-phenoxy}-phenyl)-acetamide] |  |
| > 2500 nM | > 4000 | > 5000 | CC(=O)Nc1ccc(Oc2ccc(CCNCc3ccco3)cc2)cc1 [Example 36, N-[4-(4-{2-[(Furan-2-ylmethyl)-amino]-ethyl}-phenoxy)-phenyl]-acetamide] |  |
| 912 nM | > 4000 | > 5000 | CC(=O)Nc1ccc(Oc2ccc(CCNCc3ccccc3C)cc2)cc1 [Example 40, N-(4-{4-[2-(2-Methyl-benzylamino)-ethyl]-phenoxy}-phenyl)-acetamide] |  |

Reference: patent publication US8338611B2, “Opioid receptor antagonists” (Eli Lilly and Company, priority 2004, dated 2012)
